Experimental data published in patent publication US8017649B2, “Flavonoid compounds and uses thereof” (Howard Florey Institute of Experimental Physiology and …, priority 2005, dated 2011).
Entries after “also recorded” stand apart in the source; their conditions may differ.

What was measured:
[1] = test system: myocardial ischaemia and reperfusion; settings: Wang et al., British Journal of Pharmacology (2004) 142, 443-452; cited from earlier work
aortic rings = test: Effect on SNP relaxation of precontracted rat aortic rings; assay type: cell-based
Protocol: (§1) After wash out and re-equilibration for 30 min, the aortic rings were then submaximally precontracted with PE and U46619, which were used to produce an active tension of 45-60% of the KPSS-induced maximum contraction. When investigating the effects of the flavonoids, flavonol, flavone-3-hemiadipate (F3HA), 3′, 4′-dihydroxyflavone, 3′,4′-dihydroxyflavonol, 3′,4′-dihydroxyflavone-3-hemiadipate (DiOHF3HA), and flavone-3-phosphate (F3P) on vasorelaxant responses, rings were incubated with one of the compounds for 20 mins before they were precontracted submaximally, followed by a cumulative-concentration response curve to ACh (100 nM-10 μM) or SNP ([…]). In experiments using F3P 1000U/L phosphatase was used in some experiments to cleave the phosphate. Some experiments were conducted in the presence and absence of butyryl cholinesterase (BuCHE, 1000 U/L) to cleave the adipate in DiOHF3HA and F3HA.

[2] = Solubility in aqueous solution; assay type: physicochemical; settings: water
[3] = test system: superoxide anions generated in rat aorta; test: Superoxide anion production in rat isolated aortic segments (lucigenin chemiluminescence, NADPH); assay type: cell-based
Protocol: Superoxide anion production in rat isolated aortic segments was determined using lucigenin chemiluminescence. Aortic rings were prepared as described above and then placed in ice-cold Krebs-(N-[2-Hydroxyethyl]piperazine-N′-[2-ethanesulfonic acid] (HEPES buffer) (composition (mM); NaCl 99.0, KCl 4.7, KH2PO4 1.0, MgSO4·7H2O 1.2, D-glucose 11.0, NaHCO3 25.0, CaCl2·2H2O 2.5, Na-HEPES 20.0). Aortic rings were pre-incubated for 45 minutes at 37° C. with a pH 7.4, in Krebs-HEPES buffer containing diethylthiocarbamic acid (DETCA, 10^−3 M) to inactivate superoxide dismutase and β-nicotinamide adenine dinucleotide phosphate (NADPH, 10^−4 M) as a substrate for NADPH oxidase and either 3′,4′-dihydroxyflavonol (10^−4 M) as a positive control, vehicle, 3-hydroxyflavone-3-hemiadipate, 3′,4′-dihydroxy-3-hemiadipate, 3-hydroxyflavone-3-phosphate (10^−8-10^−4 M). Background photon emission was measured for 12 cycles in a 96-well Optiplate containing 0.3 ml per well of Krebs-HEPES buffer together with lucigenin (5×10^−5 M) and vehicle or flavonoid (10^−8-10^−4 M). Each cycle was counted every one minute. After background reading was completed the incubated aortic rings were transferred to the appropriate wells and photon emission was recounted as described above. The tissue was then placed in a 65° C. oven for 48 hours to allow superoxide production to be normalised to dry tissue weight.
The effects of vehicle, 3′,4′-dihydroxyflavone-3-hemiadipate (21) (DiOHF3HA, 10^−8 M-10^−4 M) and DiOHF (10^−4 M) in the presence and absence of Butyryl cholinesterase (BuCHE), 100, 300 and 1000 U/L) on the level of superoxide anions generated in rat isolated aortic segments in the presence of NADPH was expressed as a percentage of control. The method used was as described above except for the addition of the butyryl cholinesterase.
The effect of vehicle, 3-hydroxyflavone-3-phosphate (10^−8 to 10^−4 M) in the presence or absence of phosphatase (1000 U/L) on the level of superoxide anions generated in rat aorta in the presence of NADPH expressed as a percentage of control was determined as described above for the 3′,4′-dihydroxyflavone-3-hemiadipate.

[4] = test system: endothelium intact aortic rings; test: Effect on ACh relaxation of precontracted rat aortic rings; assay type: cell-based; settings: substance alone
Protocol: as §1

SMILES	infarct and injury associated with myocardial ischaemia and reperfusion [1]	effect on relaxant response to SNP (aortic rings; in the presence of BuCHE or phosphatase)	effect on relaxant response to SNP (aortic rings; substance alone)	solubility in aqueous solution [2]	effect on superoxide generation ([3]; in the presence of cleaving enzyme (BuCHE for hemiadipates, phosphatase for phosphate, 1000 U/L))	effect on superoxide generation ([3]; substance alone, no added esterase/phosphatase, up to 10^−4 M, NADPH)	effect on relaxant response to ACh [4]
O=c1c(O)c(-c2ccc(O)c(O)c2)oc2ccccc12 [DiOHF, 3′,4′-Dihydroxyflavonol, reference compound]	reduce Infarct and injury associated with myocardial ischaemia and reperfusion	–	–	–	–	–	–
O=C(O)CCCCC(=O)Oc1c(-c2ccc(O)c(O)c2)oc2ccccc2c1=O [DiOHF3HA, 3′,4′-dihydroxyflavone-3-hemiadipate]	–	significantly increased the sensitivity of the relaxant response to SNP	no effect on relaxant responses to ACh or SNP	soluble in aqueous solution, particularly water	concentration dependent inhibition of superoxide levels; also recorded: concentration dependent inhibitory effect; also recorded: inhibit superoxide levels produced by rat aorta	no inhibitory effect on superoxide generation; also recorded: no antioxidant or vascular activity	no effect on relaxant responses to ACh or SNP
